Results: patent publication US20220378761A1, “PAPD5 Inhibition As A Treatment For Dyskeratosis Congenita, Aplastic Anemia And Myelodysplastic Syndrome Caused By Reduced Telomerase RNA Levels” (The Regents of The University of Colorado, A Body Corporate, priority 2019, published 2022)

What was measured:
TERC = TERC localization to cajal bodies by fluorescent microscopy (coilin IF, TERC FISH) in HeLa cells; type: cell-based, Homo sapiens; settings: RG7834 for 2 days
Method: (§1) Th present inventors have previously shown that in DKC1- or PARN-depleted cells, TERC accumulates in cytoplasmic puncta called “cyTER bodies,” instead of its normal localization to cajal bodies in the nucleus. To investigate whether RG7834 treatment rescued TERC localization to cajal bodies in the nucleus, DKC1- or PARN-depleted cells were treated with RG7834 for 2 days. […] Upon treatment with RG7834, —38% of cells had TERC localized to cajal bodies, which is consistent with the 1.5× increase in TERC levels in these cells. RG7834 treatment also rescued TERC localization to cajal bodies in PARN-depleted cells. In PARN knockdown cells, ˜34% of cells had TERC in cajal bodies, with TERC also mostly being localized to cyTER bodies in these cells. However, upon RG7834 treatment, ˜85% of cells had TERC localized to cajal bodies.
Fluorescent microscopy for Cajal bodies and TERC: Cells were seeded directly on glass coverslips (ethanol washed) in 6-well plates and transfected and drug treated as previously described. Coverslips were washed once with 1× DPBS and fixed with 4% formaldehyde in 1× DPBS at room temperature for 10 minutes. Cells were permeabilized in 0.2% Triton 1× DPBS for 10 minutes, and then incubated with rabbit anti-Coilin (Santa Cruz) for 1 hour at room temperature. […]

telomerase = experiment: Telomerase activity by telomere repeat amplification (TRAP) in HeLa cells; type: cell-based, Homo sapiens; design: dose or concentration left out as unconfirmed; settings: DKC1- and PARN-depleted HeLa cells, RG7834 or DMSO (FIG. 1D)
Method: as §1
Detection of telomerase activity: Telomerase activity was assessed by Telomere Repeat Amplification Protocol (TRAP). Briefly, cells were lysed in NP-40 buffer at 4° C. for 20 min and centrifuged at 13,000 rpm for 10 min. Telomere extension reactions were performed using 2, 0.5, and 0.125 μg of protein and following products were amplified by PCR. Adenosine triphosphate, labeled on the gamma phosphate group with 32P (Perkin-Elmer, USA) was used for labelling of PCR products. […]

γH2AX = γH2AX immunoblot (DNA damage signaling) in DKC1_A353V hESCs; type: cell-based, Homo sapiens; settings: DKC1_A353V cells, different concentrations vs DMSO
Method: The present inventors investigated if treatment with RG7834 was sufficient to reduce DNA damage signaling arising from eroded telomeres, a hallmark of DC.
Immunoblots. Extraction of protein was performed using NP-40 buffer (25 mM HEPES-KOH, 150 mM KCl, 1.5 mM MgCl2, 10% glycerol, 0.5% NP40, and 5 mM 2ME [pH 7.5]) supplemented with protease and phosphatase inhibitors for 20 minutes on ice and supernatant was then collected. Protein quantification was analyzed by Bradford Assay. Proteins were then resolved in 12% polyacrylamide gels in 1× Tris/glycine/SDS buffer and following resolution was transferred onto nitrocellulose membrane at 400 milliamps for 1:45 hours in 1× Tris/glycine buffer with 20% methanol. Membranes were blocked in 5% milk in TBS buffer and primary γH2AX and PARN (1:1000, and 1:4000, respectively; Abcam, Cambridge Mass.), DKC1 (1:4000, Bethyl Laboratories), Actin (1:2000, Cell Signaling Technologies, Danvers, Mass.) and GAPDH (1:5000; Cell Signaling Technologies) antibodies incubation was performed overnight at 4° C. in 5% BSA in TBS-buffer supplemented with 1% Tween-20 (TBS-T). Secondary antibodies (Li-COR, Lincoln, Nebr.) incubation was in 1% milk in TBS-T for 1 hour. Image capture and signal analysis was performed using odyssey IR scanner and Image Studio software (Li-COR).

DKC1_A353V hESCs = experiment: Colony forming culture assay of definitive hematopoietic progenitors; type: cell-based, Homo sapiens; settings: day 28 of differentiation, DKC1_A353V cells, different concentrations
Source text: Because bone marrow failure is the leading cause of death in DC, the present inventors wanted to analyze the consequences of RG7834 treatment in DKC1_A353V cells during definitive hematopoietic differentiation. There are no animal models that faithfully recapitulate the hematopoietic defects observed in patients harboring pathogenic mutations in DKC1 or PARN; therefore, the present inventors followed established protocols of hESC differentiation into hematopoietic lineages. These protocols recapitulate, in vitro, the major aspects of blood development in vivo, a strategy shown to accurately model key aspects of DC. A schematic of the protocol is depicted in FIG. 6. […] These observations provide compelling evidence that chemical inhibition of PAPD5, in addition to rescuing telomerase function, is sufficient to increase definitive, multilineage, hematopoietic potential in DKC1_A353V mutants.
Colony forming culture assays: Colony assays were performed using MethoCult H4034 Optimum (StemCell Technologies, Vancouver, Canada). […] Cells were maintained in 5% CO2 and 5% O2 incubator for 8 days and then placed into 1 ml of MethoCult in which the colonies forming were measured after 12 days. […]

[1] = cited from earlier work
cell culture models = settings: cited from earlier work

COCCCOc1cc2c(cc1OC)-c1cc(=O)c(C(=O)O)cn1[C@H](C(C)C)C2 [RG7834]
cells with TERC localized to cajal bodies (TERC; DKC1 knockdown): ~38% | cells with TERC localized to cajal bodies (TERC; PARN knockdown): ~85% | telomerase activity (telomerase): increase telomerase activity | γH2AX levels (γH2AX): γH2AX levels were reduced | definitive hematopoietic colony potential (DKC1_A353V hESCs): significantly increased the hematopoietic potential | activity in cell culture against the HPV B infection [1]: highly active | toxicity in cell culture models (cell culture models): low toxicity
